Test system: MaTu estrogen-independent human mammary carcinoma cells
Assay: MaTu human estrogen-independent mammary carcinoma xenograft model, tumor growth inhibition (tumor area by caliper)
Type: in vivo, NMRI nude mice
Parameters: inhibition of the growth of the MaTu xenograft model: dose or concentration left out as unconfirmed
Settings: monotherapy
Protocol: MaTu (EPO-GmbH, Berlin) estrogen-independent human mammary carcinoma cells, obtained from cell culture, were implanted s.c. in the inguinal region of femal NMRI nude mice. Treatment was started when the tumors were approximately 20 mm^2 in size. The groups were closed when the tumors within a treatment group reached a size of approximately 100 mm^2.
Experimental groups included the following: • 1) Control vehicle • 2) a CDK inhibitor ([…]) • 3) a VEGF-R inhibitor (50 mg/kg, p.o. twice daily, d4-d21) • 4) a CDK inhibitor ([…]) in combination with a VEGF-R inhibitor (50 mg/kg, p.o. twice daily, d4-d21) CDK inhibitor = N-[5-[[[5-(1,1-dimethylethyl)-2-oxazolyl] methyl]thio]-2-thiazolyl]-4-piperidinecarboxamide VEGF-R inhibitor = (4-Chlorophenyl)[4-(4-pyridylmethyl)phthalazin-1-yl]ammonium hydrogen succinate
Tumor area was determined by caliper measurement twice weekly. The example was designed to determine the initial response of a human estrogen-independent mammary carcinoma xenograft model to treatment with a specific CDK inhibitor, to treatment with a specific VEGF-R inhibitor, and to treatment with a combination of a CDK inhibitor together with a VEGF-R inhibitor. The tumor growth inhibiting effect of the compounds was investigated in the MaTu human estrogen-independent mammary carcinoma model, xenografted in NMRI nude mice. […]

Row | SMILES | inhibition of the growth of the MaTu xenograft model (i.p. once daily, d4-d21, s.c. xenograft in female NMRI nude mice) | inhibition of tumor growth (50 mg/kg p.o. twice daily, d4-d21, s.c. MaTu xenograft in female NMRI nude mice)
1 | CC(C)(C)c1cnc(CSc2cnc(NC(=O)C3CCNCC3)s2)o1 [CDK inhibitor, N-[5-[[[5-(1,1-dimethylethyl)-2-oxazolyl]methyl]thio]-2-thiazolyl]-4-piperidinecarboxamide] | ineffective | 
2 | Clc1ccc(Nc2nnc(Cc3ccncc3)c3ccccc23)cc1.O=C(O)CCC(=O)O [VEGF-R inhibitor, (4-Chlorophenyl)[4-(4-pyridylmethyl)phthalazin-1-yl]ammonium hydrogen succinate] |  | initially an inhibition of tumor growth

From patent EP1568368A1, “Pharmaceutical combination comprising a CDK inhibitor and a VEGF receptor inhibitor” (Schering Aktiengesellschaft, priority 2004, dated 2005)
